Columns and labels:
[1] = test system: Cotton Aphid (Aphis gossypii); assay: Insecticidal test for cotton aphid in a foliar spray assay; type: in vivo; conditions: 72 h, 200 ppm foliar spray on squash or cotton seedlings, live aphids counted after three days, Abbott's corrected % control, read-out: APHIGO % Ctrl @ 200 ppm
Procedure: Squash or cotton seedlings with fully expanded cotyledon leaves were trimmed to one cotyledon per plant and infested with wingless adult and nymph stage cotton aphid (APHIGO) one day prior to chemical application. Each plant was examined before chemical application to ensure uniform infestation (ca. 30-70 aphids per plant). Compounds (2 mg) were dissolved in 2 mL of acetone/methanol (1:1) solvent, forming stock solutions of 1000 ppm. The stock solutions were diluted 5× with 0.025% Tween 20 in H2O to obtain a solution at 200 ppm. A hand-held Devilbiss aspirator type sprayer was used to apply the spray solutions until runoff to both sides of the squash cotyledon leaves. Four plants (4 replications) were used for each concentration of each compound. Reference plants (solvent check) were sprayed with the diluent only. Treated plants were held in a holding room for three days at approximately 25° C. and 40% RH before the number of live cotton aphids on each plant was recorded. Insecticidal activity data presented in Table 3 were generated by using Abbott's correction formula: Corrected%Control=100*(X−Y)/X • where X=No. of live aphids on solvent check plants • Y=No. of live aphids on treated plants

[2] = test system: Green Peach Aphid (Myzus persicae); assay: Insecticidal test for green peach aphid in foliar spray assay; type: in vivo; conditions: 72 h, 200 ppm foliar spray on cabbage seedlings, live aphids counted after three days, Abbott's corrected % control, read-out: MYZUPE % Ctrl @ 200 ppm
Procedure: Certain molecules disclosed in this document were tested against MYZUPE using procedures described in the following example. In the reporting of the results, the “MYZUPE, APHIGO and BEMITA Rating Table” was used (See Table Section).
Cabbage seedlings grown in 3-inch pots, with 2-3 small (3-5 cm) true leaves, were used as test substrate. The seedlings were infested with 20-50 green peach aphids (wingless adult and nymph stage) one day prior to chemical application. Four pots with individual seedlings were used for each treatment. Compounds (2 mg) were dissolved in 2 mL of acetone/methanol (1:1) solvent, forming stock solutions of 1000 ppm. The stock solutions were diluted 5× with 0.025% Tween 20 in H2O to obtain the test solution at 200 ppm. A hand-held Devilbiss sprayer was used for spraying a solution to both sides of cabbage leaves until runoff. Reference plants (solvent check) were sprayed with the diluent only. Treated plants were held in a holding room for three days at approximately 25° C. and 40% relative humidity (RH) prior to grading. Evaluation was conducted by counting the number of live aphids per plant under a microscope. Insecticidal activity data presented in Table 3 were generated by using Abbott's correction formula: Corrected%Control=100*(X−Y)/X • where X=No. of live aphids on solvent check plants • Y=No. of live aphids on treated plants

[3] = test system: Sweetpotato Whitefly (Bemisia tabaci); assay: Insecticidal test for sweetpotato whitefly in foliar spray assay; type: in vivo; conditions: 200 ppm foliar spray on cotton plants infested with eggs, live nymphs counted after 8-9 days, Abbott's corrected % control, read-out: BEMITA % Ctrl @ 200 ppm
Procedure: Cotton plants were used as test substrate and were grown in 3-inch pots and pruned until only 1 small (3-5 cm) true leaf remained. The plants were then placed in a room with whitefly ([…]) adults and allowed to be infested with eggs. After a 2-3 day egg-laying period, plants were taken from the adult whitefly room and the adults were removed from the leaves using compressed air delivered through a hand-held Devilbiss sprayer (23 psi). Plants infested with eggs (100-300 eggs per plant) were placed in a controlled-environment room for 5-6 days at 82° F. and 50% RH until approximately 50% egg hatch. Four cotton plants (4 replicates) were used for each treatment. Compounds (2 mg) were dissolved in 1 mL of acetone solvent, forming stock solutions of 2000 ppm. The stock solutions were diluted 10× with 0.025% Tween 20 in H2O to obtain the test solution of 200 ppm. A hand-held Devilbiss sprayer was used for spraying a solution to both sides of cotton leaf until runoff. Reference plants (solvent check) were sprayed with the diluent only. Treated plants were held in a holding room for 8-9 days at approximately 82° F. and 50% RH prior to grading. Evaluation was conducted by counting the number of live nymphs per plant under a microscope. Insecticidal activity data presented in Table 3 were generated by using Abbott's correction formula: Corrected%Control=100*(X-Y)/X • where X=No. of live nymphs on solvent check plants • Y=No. of live nymphs on treated plants […]

Row | melting point [°C] | SMILES | inhibition at 200 ppm [1] [%] | inhibition at 200 ppm [2] [%] | inhibition at 200 ppm [3] [%]
1 | – | CSCCC(=O)N(C)c1nnc(-c2cnccc2C(F)(F)F)s1 [Compound 60] | 0 to 80 | < 0 | –
2 | – | CN(C(=O)C(C)(C)CS(C)(=O)=NC#N)c1nnc(-c2cccnc2)s1 (stereo not shown) [Compound 42, N-2,2-trimethyl-3-(methyl-N-cyano-sulfoximinyl)-N-(5-(pyridin-3-yl)-1,3,4-thiadiazol-2-yl)propanamide] | 0 to 80 | 80 to 100 | 0 to 80
3 | 162 to 164 | CCOC(=O)N(C)c1nnc(-c2cccnc2)s1 [Compound 15] | 0 to 80 | < 0 | –
4 | – | CCOC(=O)N(C)c1nnc(-c2cncc(F)c2)s1 [Compound 87] | – | – | 80 to 100
5 | – | CN(C(=O)CCSc1ccccc1)c1nnc(-c2cccnc2)s1 [Compound 10] | 0 to 80 | 80 to 100 | –
6 | 110 to 112 | CN(C(=O)CCN)c1nnc(-c2cccnc2)s1 [Compound 41, 3-amino-N-methyl-N-(5-(pyridin-3-yl)-1,3,4-thiadiazol-2-yl)propanamide] | 80 to 100 | 0 to 80 | –
7 | – | CSCCCN(C(C)=O)c1nnc(-c2cccnc2)s1 [Compound 47] | 0 to 80 | < 0 | –
8 | – | CC(CS(C)(=O)=O)C(=O)N(C)c1nnc(-c2cccnc2)s1 (stereo not shown) [Compound 37] | 80 to 100 | 80 to 100 | 0 to 80
9 | 198 to 200 | CN(C(=O)OCCS(C)(=O)=O)c1nnc(-c2cccnc2)s1 [Compound 52] | 0 to 80 | 0 to 80 | –
10 | – | CN(CCC(=O)N(C)c1nnc(-c2cccnc2)s1)C(=O)OCc1ccccc1 [Compound 31] | < 0 | < 0 | –
11 | 152 to 155 | COC(=O)CCC(=O)N(c1ccccc1)c1nnc(-c2cccnc2)s1 [Compound 59] | 0 to 80 | < 0 | –
12 | 127 to 132 | CCOC(=O)Nc1nnc(-c2cccnc2)s1 [Compound 14] | 0 to 80 | < 0 | –
13 | – | CN(C(=O)C(C)(C)CS(C)(=O)=O)c1nnc(-c2cccnc2)s1 [Compound 33] | 80 to 100 | 80 to 100 | 0 to 80
14 | 198 to 201 | CN(C(=O)CCS(=O)(=O)Cc1ccccc1)c1nnc(-c2cccnc2)s1 [Compound 40] | < 0 | < 0 | –
15 | – | CSCOC(=O)N(C)c1nnc(-c2cccnc2)s1 [Compound 54, methylthiomethyl methyl(5-(pyridin-3-yl)-1,3,4-thiadiazol-2-yl)carbamate] | 0 to 80 | < 0 | –
16 | – | CS/C=C/C(=O)N(C)c1nnc(-c2cccnc2)s1 [Compound 21, (E)-N-methyl-3-(methylthio)-N-(5-(pyridin-3-yl)-1,3,4-thiadiazol-2-yl)acrylamide] | 0 to 80 | 80 to 100 | –
17 | – | CCC(CC)(CSC)C(=O)N(C)c1nnc(-c2cccnc2)s1 [Compound 53] | 80 to 100 | 0 to 80 | 0 to 80
18 | – | CN(C(=O)CCNC(=O)OCc1ccccc1)c1nnc(-c2cccnc2)s1 [Compound 30] | 0 to 80 | < 0 | –

Row | melting point [°C] | SMILES | inhibition at 200 ppm [1] [%] | inhibition at 200 ppm [2] [%] | inhibition at 200 ppm [3] [%]
19 | – | CC(C)(CS(C)(=O)=O)C(=O)Nc1nnc(-c2cccnc2)s1 [Compound 36] | 80 to 100 | 0 to 80 | –
20 | – | CN(C(=O)CCSC(F)(F)F)c1nnc(-c2cccnc2)s1 [Compound 27, N-methyl-N-(5-(pyridin-3-yl)-1,3,4-thiadiazol-2-yl)-3-(trifluoromethylthio)propanamide] | 80 to 100 | 0 to 80 | –
21 | – | CN(C(=O)C(C)(C)C[S+](C)[O-])c1nnc(-c2cccnc2)s1 (stereo not shown) [Compound 32] | 80 to 100 | 80 to 100 | 80 to 100
22 | 192 to 194 | CSC(=O)N(C)c1nnc(-c2cccnc2)s1 [Compound 55, S-methyl methyl(5-(pyridin-3-yl)-1,3,4-thiadiazol-2-yl)carbamothioate] | 0 to 80 | < 0 | –
23 | 155 to 159 | CN(C(=O)CCNC#N)c1nnc(-c2cccnc2)s1 [Compound 23, 3-(cyanoamino)-N-methyl-N-[5-(3-pyridyl)-1,3,4-thiadiazol-2-yl]propanamide] | 80 to 100 | 80 to 100 | –
24 | 175 to 177 | COC(=O)CCC(=O)N(C)c1nnc(-c2ccncc2)s1 [Compound 97] | 0 to 80 | < 0 | –
25 | – | CSCCNC(=S)N(C)c1nnc(-c2cncc(F)c2)s1 [Compound 86, 1-[5-(5-fluoro-pyridin-3-yl)-[1,3,4]thiadiazol-2-yl]-1-methyl-3-(2-methylsulfanyl-ethyl)-thiourea] | – | 80 to 100 | 80 to 100
26 | 102 to 105 | CN(C(=O)C(C)(C)CO[Si](C)(C)C(C)(C)C)c1nnc(-c2cncc(F)c2)s1 | – | – | –
27 | 182 to 188 | CSCC(C)(C)C(=O)Nc1nnc(-c2cccnc2)s1 [Compound 35] | 80 to 100 | 0 to 80 | –
28 | 149 to 151 | CN(C(=O)CCS)c1nnc(-c2cccnc2)s1 [Compound 25, 3-mercapto-N-methyl-N-(5-(pyridin-3-yl)-1,3,4-thiadiazol-2-yl)propanamide] | 80 to 100 | 80 to 100 | –
29 | – | CSCC(Cc1ccccc1)C(=O)N(C)c1nnc(-c2cccnc2)s1 (stereo not shown) [Compound 57] | 0 to 80 | 0 to 80 | –
30 | 60 to 75 | CN(C(=O)CCSC(c1ccccc1)(c1ccccc1)c1ccccc1)c1nnc(-c2cccnc2)s1 [Compound 22, N-methyl-N-(5-(pyridin-3-yl)-1,3,4-thiadiazol-2-yl)-3-(tritylthio)propanamide] | < 0 | 0 to 80 | –
31 | 133 to 135 | CC(=O)SCCC(=O)N(C)c1nnc(-c2cccnc2)s1 [Compound 26, S-3-(methyl(5-(pyridin-3-yl)-1,3,4-thiadiazol-2-yl)-amino)-3-oxopropyl ethanethioate] | 0 to 80 | 0 to 80 | –
32 | 152 to 154 | CSCCC(=O)N(C)c1nnc(-c2ccncc2)s1 [Compound 96] | 0 to 80 | – | –
33 | – | CSCCC(=O)N(CC1CC1)c1nnc(-c2cccnc2)s1 [Compound 98] | – | 80 to 100 | < 0
34 | – | COCCOC(=O)N(C)c1nnc(-c2cccnc2)s1 [Compound 16] | 80 to 100 | 0 to 80 | –
35 | 117 to 120 | CSCCC(=O)N(c1ccccc1)c1nnc(-c2cccnc2)s1 [Compound 58] | < 0 | – | –
36 | – | CSCCN(C)C(=O)N(C)c1nnc(-c2cncc(F)c2)s1 [Compound 83, 1-[5-(5-fluoro-pyridin-3-yl)-[1,3,4]thiadiazol-2-yl]-1,3-dimethyl-3-(2-methylsulfanyl-ethyl)-urea] | – | 80 to 100 | 0 to 80

Reference: patent publication US8912338B2, “Pesticidal compositions” (Dow AgroSciences LLC, priority 2010, dated 2014)
